This assay relates to ovariectomized osteoporosis rat model. Description: Micro-CT of right femurs. Format: in vivo, SD rats. As to conditions: vs Model group. The protocol:
1, the construction of ovariectomized rats models: SD rats are kept in a clean environment under a controlled room temperature at 25±2° C. and alternates 12/12 light and dark every day, and the SD rats feed freely. After one week adaptive feeding, randomly select 8 female rats, anesthetize them with 1% (v/v) pentobarbital sodium (40 mg/kg BW), and remove a little fat near ovaries. The remaining 40 rats are ovariectomized after being anesthetized with pentobarbital sodium. The recovery situation is observed in a 4-week recovery period, and their weight changes are detected. These are prepared by the applicant in advance. (any research about metabolic fingerprint changes of ovariectomized osteoporotic rats after intervention with bone peptide have not been reported according to the existing literature). 2, animal grouping and samples collection: the 8 female rats with a little fat near ovaries removed are selected as a sham-operated group, the ovariectomized 40 rats are randomly divided into 5 groups with 8 rats in each group, and are named by a negative control group, a positive control group, a low-concentration treatment group, a medium-concentration treatment group and a high-concentration treatment group. The rats are perfused by different solutions of bovine bone peptide (diluted by ultrapure water, and sterilized) with concentration of 100 mg/kg, 200 mg/kg, and 500 mg/kg according to the weights of the rats. The rats in the negative control group are perfused with equal volume of ultrapure sterile water (a perfusing volume is generally 1-2 mL/100 g BW), and the rats in the positive control group are perfused with 50 μg/kg of 17β-estradiol (ES). Observe weight changes of the rats and measure the weights every two weeks. After perfusing experiment, the rats are sacrificed in accordance with the animal welfare operating procedures, femurs and tibias on both sides are taken, and soft tissues such as muscle and fascia attached to bone tissues are removed. The right tibias are subjected to paraffin-embedded H&E staining treatment after fixing in a phosphate-formalin buffer for 24 hours for morphometric analysis of the tibias of the rats. Left femurs and right femurs is soaked with normal saline, washed repeatedly for 3 times, wrapped with medical gauzes (pre-soaked with normal saline) and tinfoil, and then stored in a −20° C. refrigerator for trabecular bone microstructure (micro-CT scanning) and mechanical strength tests of bone biomechanical indexes (three-point bending test). In the screening method of the biomarkers in the anti-osteoporosis activity of bone peptide, the specific implementation steps of determining biomechanical indexes of the right femurs of the rats by the Micro-CT method are as follows: determining femur microstructures by Micro Computed Tomography (Micro-CT, Inveon-type, SIEMENS, Germany) with scanning parameters: a span voltage of 80 kV, a scanning current of 500 μA, and a scanning thickness (resolution) of […] Region of interest (ROI) of femurs starts from 1 mm below a bone tissue growth-plate. Scan the layers downward and sequentially. Select the bone tissue with a thickness of 100 layers as cancellous ROI for three-dimensional reconstruction to obtain a visualized 3D image. The obtained scanning data are subjected to morphometric calculation of femur tissues using Inveon Research Workplace software (SIEMENS, Germany). […]

For `C[C@]12CC[C@@H]3c4ccc(O)cc4CC[C@H]3[C@@H]1CC[C@@H]2O` [ES, 17β-estradiol], the “osteoporosis of the rats (three dimensional reconstruction of femur bone microstructures)” value (after treatment) was “improved to a certain extent”. Further, under “right femur”, the “bone volume fraction (BV/TV)” value is reported as “on a rise trend”, the “trabecular bone density (Tb.BMD)” value was “on a rise trend”, the “trabecular bone number (Tb.N)” value is “on a rise trend” and the “trabecular bone thickness (Tb.Th)” value is recorded as “on a rise trend”.

For the origin of these results see US20220308068A1, “BIOMARKER IN OSTEOPOROSIS INTERVENTION THERAPY BY BONE PEPTIDE, SCREENING METHOD AND USE THEREOF” (Institute of Food Science and Technology, Chinese Academy …, priority 2019, published 2022).
